Experimental data taken from patent US7741337B2, “Azonafide derivatives, methods for their production and pharmaceutical compositions therefrom” (Unibioscreen S.A., priority 2005, dated 2010).

How the values were obtained:
A549 (Lung cancer) cells = experiment: Effect on cell migration, A549; type: cell-based; settings: Homo sapiens, p value in same cell, read-out: Maximum effects (cell migration); for Emax at 0.01 µM: 22 hours on the 25% of most motile cells, at 10^−8 M
Procedure: (§1) Cells of different cancer lines, i.e. U-373 MG (Glioma cancer), PC3 (prostate cancer and A549 (Lung cancer) were seeded on culture flask 48 hours before the migration experiment. On the test day, cells were treated with or without the azonafide derivatives mentioned in table 3 in closed Falcon dishes containing a buffered medium at a controlled temperature (37.0±0.1° C.) for 12 or 22 hours, as noted in the right column of table 3. The azonafide derivatives were used at three non-cytotoxic concentrations (10^−6 M, 10^−7, 10^−8 M). Migration of the cells was observed by means of a CCD-camera mounted on a phase-contrast microscope. Statistical analysis of the migration, with the non-parametric Mann-Whitney test, was established for 25% and 50% of the most motile cells and for the entire cell population.

[1] = tested on: PC3 (prostate cancer) cells; experiment: Effect on cell migration, PC3; type: cell-based; settings: Homo sapiens, 22 hours on the 25% of most motile cells, p value in same cell, read-out: Maximum effects (cell migration); for Emax at 0.01 µM: at 10^−8 M
Procedure: as §1

[2] = tested on: U-373 MG, PC-3 and/or A549 cancer cells; experiment: Effect on cell migration, summary of table 3; type: cell-based, human; settings: for migration level of cancer cells: U-373 MG, PC-3 and/or A549 cancer cells at the non-cytotoxic concentrations of this study; for cell migration activity compared with the closest compounds known in the art: comparison drawn from table 3
Procedure: as §1

[3] = tested on: human cancer cell lines Hs683, U-373MG, HCT-15, LoVo, A549 and MCF-7; experiment: MTT test, effect on overall cell growth (mean of six cell lines, examples 3 to 26); type: cell-based; settings: mean of six cell lines Hs683, U-373MG, A549, MCF-7, 72 hours incubation, range of molar concentrations resulting in 50% inhibition of overall tumor cells growth
Procedure: (§2) MTT tests were performed in order to rapidly, i.e. within 5 days, measure the effect of azonafide derivatives of this invention on the overall cell growth. The test measures the number of metabolically active living cells that are able to transform the yellow product 3-(4,5-dimethylthiazol-2-yl)-2,5-diphenyl tetrazolium bromide (herein referred as MTT) into the blue product formazan dye by mitochondrial reduction. The amount of formazan obtained at the end of the experiment, measured by means of a spectrophotometer, is directly proportional to the number of living cells. Optical density determination thus enables a quantitative measurement of the effect of the investigated compounds as compared to the control condition (untreated cells) and/or to other reference compounds.
(§3) Height human cancer cell lines described in table 1 were used in the following MTT tests. These cell lines cover six histological cancer types, being prostate, glioma, pancreas, colon, lung and breast cancers. Cells were allowed to grow in 96-well micro-wells with a flat bottom with an amount of 100 μl of cell suspension per well with 1,000 to 4,000 cells/well depending on the cell type used. Each cell line was seeded in a well known MEM 5% serum culture medium.
(§4) The detailed experimental procedure was as following: after a 24-hour period of incubation at 37° C., the culture medium was replaced by 100 μl of fresh medium in which the compound to be tested was dissolved at the following molar concentrations: 10^−9 M, 5.10^−9 M, 10^−8 M, 5.10^−8 M, 10^−7 M, 5.10^−7 M, 10^−6 M, 5.10^−6 M and 10^−5 M. Each experiment was repeated 6 times.
(§5) After 72 hours of incubation at 37° C. with (experimental conditions) or without (control condition) the compound to be tested, the medium was replaced by 100 μl MTT dissolved in RPMI at a concentration of 1 mg/ml. The micro-wells were subsequently incubated during 3 hours at 37° C. and centrifuged at 400 g during 10 minutes. MTT was removed and formazan crystals formed were dissolved in 100 μl DMSO. The micro-wells were shaken for 5 minutes and read on a spectrophotometer at wavelengths of 570 nm (maximum formazan absorbance) and 630 nm (back-ground noise).
(§6) For each experimental condition, the mean optical density was calculated, as well as the percentage of remaining living cells in comparison with the control.
(§7) IC50 values for compounds of examples 3 to 26 were obtained on cell lines Hs683, U-373MG, HCT-15, LoVo, A549 and MCF-7 described in Table 1. IC50 values for compounds from examples 27 to 45 were obtained on cell lines PC3, U-373MG, BxPC3, LoVo, A549 and MCF-7 described in Table 1.

[4] = tested on: U-373 MG (Glioma cancer) cells; experiment: Effect on cell migration, U-373MG; type: cell-based; settings: Homo sapiens, U373 MG, 22 hours on the 25% of most motile cells, p value in same cell, read-out: Maximum effects (cell migration)
Procedure: as §1

[5] = tested on: human cancer cell lines PC3, U-373MG, BxPC3, LoVo, A549 and MCF-7; experiment: MTT test, effect on overall cell growth (mean of six cell lines, examples 27 to 45); type: cell-based; settings: mean of six cell lines PC3, U-373MG, A549, MCF-7, 72 hours incubation, range of molar concentrations resulting in 50% inhibition of overall tumor cells growth
Procedure: as §2, §3, §4, §5, §6, §7

[6] = tested on: human tumour xenografts with colon, lung and mammary cancers; settings: mice with colon; cited from earlier work
leukemia models = settings: mice; cited from earlier work
[7] = patients receiving five daily doses of the drug; cited from earlier work
[8] = tested on: primary human solid tumours; settings: in vitro; Ajani et al. Invest New Drugs (1988) 6:79-83; cited from earlier work
tumors = settings: mice; compared with amonafide; U.S. Pat. No. 5,635,506; cited from earlier work
[9] = compared with amonafide; U.S. Pat. No. 5,635,506; cited from earlier work
[10] = tested on: multidrug resistant tumors; settings: in vitro; U.S. Pat. No. 5,635,506; cited from earlier work
[11] = tested on: human Myeloma 8226/DOX 40 cell line; settings: U.S. Pat. No. 5,635,506; cited from earlier work

For `CN(C)CCN1C(=O)c2cccc3cc4c(N=Cc5cc(O)ccc5O)cccc4c(c23)C1=O` (stereo in doubt) [Example 6, 8-{[(1Z)-(2,5-dihydroxyphenyl)methylidene]amino}-2-[2-(dimethylamino)ethyl]-1H-dibenzo[de,h]isoquinoline-1,3(2H)-dione], the Emax at 0.01 µM (A549 (Lung cancer) cells) was -29%, the Emax at 0.01 µM [1] was -24% and the “migration level of cancer cells” value [2] was “induced a decrease in the migration level”. For the same compound, the “cell migration activity compared with the closest compounds known in the art” value [2] was “significantly greater cell migration activity than the closest compounds known in the art, or similar cell migration activity at significantly lower concentrations”, the melting point was 205 °C and the IC50 [3] was 1 to 5 µM.

For `CN(C)CCN1C(=O)c2cccc3cc4cccc(/N=C\c5cc(O)ccc5O)c4c(c23)C1=O` [Example 5, 11-{[(1Z)-(2,5-dihydroxyphenyl)methylidene}amino]-2-[2-(dimethylamino)ethyl]-1H-dibenzo[de,h]isoquinoline-1,3(2H)-dione], the Emax at 0.01 µM (A549 (Lung cancer) cells) was -47%, the “migration level of cancer cells” value [2] was “induced a decrease in the migration level” and the “cell migration activity compared with the closest compounds known in the art” value [2] was “significantly greater cell migration activity than the closest compounds known in the art, or similar cell migration activity at significantly lower concentrations”. The melting point was 225 °C and the IC50 [3] was greater than 10 µM.

With `CN(C)CCN1C(=O)c2cccc3cc4cccc(/N=C\c5ccc6c(c5)OCO6)c4c(c23)C1=O` [Example 7, 11-{[(1Z)-1,3-benzodioxol-5-ylmethylidene]amino}-2-[2-(dimethylamino)ethyl]-1H-dibenzo[de,h]isoquinoline-1,3(2H)-dione] the Emax at 1 µM (A549 (Lung cancer) cells; 22 hours on the 100% of cells, at 10^−6 M) was -20%, the “migration level of cancer cells” value [2] was “induced a decrease in the migration level” and the melting point was 198 °C. For the same compound, the IC50 [3] was greater than 10 µM.

With `CCCCCNC(=O)Nc1cccc2cc3cccc4c3c(c12)C(=O)N(CCN(C)C)C4=O` [Example 13, 1-{2-[2-(dimethylamino)ethyl]-1,3-dioxo-2,3-dihydro-1H-dibenzo[de,h]isoquinolin-11-yl}-3-pentylurea] the Emax at 0.01 µM [1] was -43%, the “migration level of cancer cells” value [2] was “induced a decrease in the migration level” and the “cell migration activity compared with the closest compounds known in the art” value [2] was “significantly greater cell migration activity than the closest compounds known in the art, or similar cell migration activity at significantly lower concentrations”. It also gave an Emax at 0.1 µM ([4]; at 10^−7 M) of -24% and an IC50 [3] of 5 to 10 µM.

For `CN(C)CCN1C(=O)c2cccc3cc4cccc(NC(=S)Nc5ccc(OC(F)(F)F)cc5)c4c(c23)C1=O` [Example 31, 1-{2-[2-(dimethylamino)ethyl]-1,3-dioxo-2,3-dihydro-1H-dibenzo[de,h]isoquinolin-11-yl}-3-[4-(trifluoromethoxy)phenyl]thiourea], the Emax at 1 µM ([1]; at 10^−6 M) was -30%, the “migration level of cancer cells” value [2] was “induced a decrease in the migration level” and the “cell migration activity compared with the closest compounds known in the art” value [2] was “significantly greater cell migration activity than the closest compounds known in the art, or similar cell migration activity at significantly lower concentrations”. For the same compound, the Emax at 1 µM ([4]; at 10^−6 M) was -60% and the IC50 [5] was greater than 10 µM.

In the case of `CN(C)CCN1C(=O)c2cccc3cc(N)cc(c23)C1=O` [amonafide], the “activity in human tumour xenografts” value [6] is given as “no activity”, the “activity in leukemia models” value (leukemia models) is given as “only moderate activity” and the myelotoxicity [7] is given as “substantial myelotoxicity leading to some deaths”. For the same compound, the “activity in primary human solid tumours” value [8] was “poor activity”.

For `CN(C)CCN1C(=O)c2cccc3cc4ccccc4c(c23)C1=O` [azonafide, 2-[2′-(dimethylamino)ethyl]-1,2-dihydro-3H-dibenz(deh)isoquinoline-1,3-dione], the “appearance of tumors and tumor growth” value (tumors) is listed as “delay the appearance of tumors and to reduce tumor growth in mice with more efficiency than amonafide”, the cardiotoxicity [9] is listed as “higher cardiotoxicity than amonafide” and the “anti-tumor activity on multidrug resistant tumors” value [10] is listed as “showed anti-tumor activity”. The cross resistance [11] was “possible three-fold cross resistance”.
